# Reference: PubChem BioAssay AID1549 (Sanford-Burnham Center for Chemical Genomics, 2009)
# Active and inactive are the calls of the source. How the calls were made is not given here.
# Molecular target: Influenza A virus M2 proton channel (A/TW/4845/1999 H1N1)
# Experiment: M2 proton channel binding, NMR based, influenza A virus H1N1 strain (AID 1549)
# Settings: NMR binding screen, M2 protein
row,SMILES,Kd
1,O=C(O)C1(O)C[C@@H](O)C(O)[C@H](O)C1 (some centres not stated),> 4 mM (inactive)
2,Cc1cc(C)n(C2CCS(=O)(=O)C2)n1 (configuration not stated),> 4 mM (inactive)
3,CC(C)[C@@H]1CC[C@@H](C)C[C@H]1O,> 4 mM (inactive)
4,COc1cccc(Oc2ccc(N)cn2)c1,> 4 mM (inactive)
5,O=C(Nc1cnccn1)c1cccnc1,> 4 mM (inactive)
6,C/C=C/C=N/NC(=O)c1ccc(=O)n(C)c1,> 4 mM (inactive)
7,O=C1CNC(=O)N1Cc1ccc(F)cc1,> 4 mM (inactive)
8,COc1cc(O)c(C)c(O)c1,> 4 mM (inactive)
9,Cc1nc2ccccc2c(=O)[nH]1,> 4 mM (inactive)
10,Cc1cc(O)c2c(c1)C(=O)c1cccc(O)c1C2=O,> 4 mM (inactive)
11,N#Cc1nc(N2CCCCC2)nc(N2CCOCC2)n1,> 4 mM (inactive)
12,CN1C(=O)c2ccc(C(=O)NCc3ccccc3)cc2C1=O,> 4 mM (inactive)
13,Nc1cccc(C(=O)Nc2ccc(N)cc2Cl)c1,> 4 mM (inactive)
14,NC(=O)C1CCN(S(=O)(=O)c2ccccc2)CC1,> 4 mM (inactive)
15,NCc1csc2ccccc12,> 4 mM (inactive)
16,Nc1ncnc(NCc2cccnc2)c1[N+](=O)[O-],> 4 mM (inactive)
17,O=C(O)Cc1nc(-c2ccncc2)n[nH]1,> 4 mM (inactive)
18,NCc1ccc(-c2csnn2)cc1,> 4 mM (inactive)
19,O=C(O)c1ccc(-c2cccs2)cc1,> 4 mM (inactive)
20,CN1CCN(c2ccc(C(=O)O)cc2)CC1,> 4 mM (inactive)
21,Cc1noc(-c2ccccc2)c1C(=O)O,> 4 mM (inactive)
22,N[C@@H](CCC(=O)N[C@@H](CS)C(=O)NCC(=O)O)C(=O)O,> 4 mM (inactive)

row,SMILES,Kd
1,CC(NC(=O)c1cccnc1)c1ccc2c(c1)OCO2 (configuration not stated),> 4 mM (inactive)
2,COC(=O)c1ccccc1NC(=O)c1cc[n+]([O-])cc1,> 4 mM (inactive)
3,Cc1noc(C)c1C(=O)Nc1sc(C)c(C)c1C#N,> 4 mM (inactive)
4,O=C(O)c1cc(F)cc2c1OCOC2,> 4 mM (inactive)
5,Cc1ccc(-c2nnc3sc(-c4ccncc4)nn23)cc1,> 4 mM (inactive)
6,CN1CCC(O)N1C(=O)c1ccccc1O (configuration not stated),> 4 mM (inactive)
7,Nc1nnc(SCc2ccc(F)cc2)s1,> 4 mM (inactive)
8,Nc1nc(SCc2ccc3c(c2)OCO3)n[nH]1,> 4 mM (inactive)
9,O=C(Nc1ccon1)c1ccccc1Cl,> 4 mM (inactive)
10,Cc1ccc(S(=O)(=O)CCc2ccccn2)cc1,> 4 mM (inactive)
11,Cn1c(CN)nc2ccccc21,> 4 mM (inactive)
12,O=C(O)c1cnc2n(c1=O)CCS2,> 4 mM (inactive)
13,COc1cccc(N2CCNCC2)c1,> 4 mM (inactive)
14,CNC(=O)COc1cccc2c1CCNC2=O,> 4 mM (inactive)
15,C[C@@H]1[C@H]2[C@H](O[C@@H]3O[C@H](CO)[C@@H](O)[C@H](O)[C@H]3O)OC=C(C(=O)O)[C@H]2C[C@@H]1O,> 4 mM (inactive)
16,NC(=O)c1cccnc1Oc1ccccc1,> 4 mM (inactive)
17,Nc1ccc(S(=O)(=O)N2CCOCC2)cc1,> 4 mM (inactive)
18,O=S1(=O)CCC(N2CCCCC2)C1 (configuration not stated),> 4 mM (inactive)
19,O=C(O)CC1Sc2ccccc2NC1=O (configuration not stated),> 4 mM (inactive)
20,CC1(C)C(=O)C=C[C@@]2(C)C1C[C@@H](O)[C@]1(C)C2CC[C@@]2(C)[C@H](c3ccoc3)OC(=O)[C@H]3O[C@]321 (some centres not stated),> 4 mM (inactive)
21,COC(=O)NNc1ncnc(N)c1[N+](=O)[O-],> 4 mM (inactive)
22,O=C(NCCO)NC(=S)c1ccccc1,> 4 mM (inactive)

row,SMILES,Kd
1,O=C(O)CSCC(=O)Nc1cccc(O)c1,> 4 mM (inactive)
2,S=C=NCc1ccccc1,> 4 mM (inactive)
3,CC(=O)c1c(C)n(O)c2ccc3nonc3c12,> 4 mM (inactive)
4,O=C1CC(c2ccccc2)n2ncnc2N1 (configuration not stated),> 4 mM (inactive)
5,Oc1ccc([C@H]2Oc3cc(O)cc(O)c3C[C@H]2O)cc1,> 4 mM (inactive)
6,O=C(Nc1ccccc1)c1cccc(N2C(=O)CCC2=O)c1,> 4 mM (inactive)
7,O=C1Nc2ccccc2C1(O)Cc1ccncc1 (configuration not stated),> 4 mM (inactive)
8,Cc1nn2c(nc1=O)SCC(c1ccccc1)=N2,> 4 mM (inactive)
9,O=C(O)CSCc1ccc(Cl)cc1,> 4 mM (inactive)
10,CC(CCC(=O)O)[C@H]1CCC2C3C(C[C@H](O)[C@@]21C)[C@@]1(C)CC[C@@H](O)C[C@H]1C[C@H]3O (some centres not stated),> 4 mM (inactive)
11,CCC1(CC)C(=O)N=C(N)NC1=O,> 4 mM (inactive)
12,CN1CCN(c2ncnc3nc[nH]c23)CC1,> 4 mM (inactive)
13,N#Cc1ccccc1CSc1ccccn1,> 4 mM (inactive)
14,OC1CNCc2cc3c(cc21)OCCO3 (configuration not stated),> 4 mM (inactive)
15,CC(=O)c1cc(CN2C(=O)c3ccccc3C2=O)cs1,> 4 mM (inactive)
16,c1ccc(-n2nnnc2Oc2cccc3cccnc23)cc1,> 4 mM (inactive)
17,CCN1CCN(c2ncnc3c2nnn3C)CC1,> 4 mM (inactive)
18,OCC1COc2ccccc2O1 (configuration not stated),> 4 mM (inactive)
19,O=C(O)Cn1cc(C(=O)C2CC2)c2ccccc21,> 4 mM (inactive)
20,COC(=O)[C@@H]1OC(=O)C2OC23[C@@]1(C)CCC1[C@]2(C)C(C[C@H](O)[C@]13C)C(C)(C)[C@H](OC(C)=O)C[C@@H]2OC(C)=O (some centres not stated),> 4 mM (inactive)
21,CC(=O)Oc1c2c(c3c(c1CC=C(C)C)O[C@]14C(=C[C@@H]5CC1C(C)(C)OC4(C/C=C(\C)C(=O)O)C5=O)C3=O)OC(C)(CCC=C(C)C)C=C2 (some centres not stated),> 4 mM (inactive)
22,Nc1nnc(SCc2ccccc2Cl)s1,> 4 mM (inactive)

row,SMILES,Kd
1,Cc1cc([N+](=O)[O-])cc[n+]1[O-],> 4 mM (inactive)
2,Cc1ccc(C)n1CCN1CCNCC1,> 4 mM (inactive)
3,O=S1(=O)NC(=NCc2ccccc2)c2ccccc21,> 4 mM (inactive)
4,Cc1nc2nc(COc3ccccc3)nn2c(C)c1Cl,> 4 mM (inactive)
5,O=C(c1ccc(Cl)c(F)c1F)N1CCCC1,> 4 mM (inactive)
6,O=C1c2ccccc2C(=O)N1CCc1ccccn1,> 4 mM (inactive)
7,CC1(C)N=C2C(=[N+]1[O-])CCC/C2=N\O,> 4 mM (inactive)
8,Nc1cc(=O)[nH]c(SCC(=O)Nc2nccs2)n1,> 4 mM (inactive)
9,NC(=O)c1ccccc1NC(=O)C1CCCO1 (configuration not stated),> 4 mM (inactive)
10,CC(=O)Nc1ccc2c(c1)CCCC2=O,> 4 mM (inactive)
11,NC(=NCCC[C@H](N)C(=O)O)NC(CCC(=O)O)C(=O)O (some centres not stated),> 4 mM (inactive)
12,Cc1cc(NC(=O)c2cc(C)on2)no1,> 4 mM (inactive)
13,COc1cccc2onc(N)c12,> 4 mM (inactive)
14,O=C(NS(=O)(=O)c1ccccc1)c1ccccc1F,> 4 mM (inactive)
15,Nc1cc(=O)[nH]c(=S)n1CCc1ccccc1,> 4 mM (inactive)
16,Cc1cc(=O)n2[nH]c(COc3ccccc3)nc2n1,> 4 mM (inactive)
17,CN(C)N1C(=O)c2ccccc2C1=O,> 4 mM (inactive)
18,Cc1ccc(C)c(S(=O)(=O)NCc2cccnc2)c1,> 4 mM (inactive)
19,O=C1c2ccncc2C(=O)N1CNc1ccccn1,> 4 mM (inactive)
20,Nc1nc(N)nc(N2C(=O)c3ccccc3C2=O)n1,> 4 mM (inactive)
21,CC(C)n1c(Nn2cnnc2)nc2ccccc21,> 4 mM (inactive)
